The target of test [1] is T1, c-Met (Homo sapiens, UniProt P08581). As to the kind of experiment: Z'-LYTE Tyr6 peptide kinase assay, […] ATP, purified c-Met kinase domain. It is filed as biochemical.
The target of test [2] is T1, c-Met. As to the kind of experiment: Z'-LYTE Tyr6 peptide kinase assay, single concentration. It is filed as biochemical.

Data on 2 compounds can be found in PMC5045260 (Phytotherapy research : PTR, 2016).

In general, IC50 refers to the concentration that gives 50% inhibition.

T1 sequence (P08581 956-1390 limits assumed): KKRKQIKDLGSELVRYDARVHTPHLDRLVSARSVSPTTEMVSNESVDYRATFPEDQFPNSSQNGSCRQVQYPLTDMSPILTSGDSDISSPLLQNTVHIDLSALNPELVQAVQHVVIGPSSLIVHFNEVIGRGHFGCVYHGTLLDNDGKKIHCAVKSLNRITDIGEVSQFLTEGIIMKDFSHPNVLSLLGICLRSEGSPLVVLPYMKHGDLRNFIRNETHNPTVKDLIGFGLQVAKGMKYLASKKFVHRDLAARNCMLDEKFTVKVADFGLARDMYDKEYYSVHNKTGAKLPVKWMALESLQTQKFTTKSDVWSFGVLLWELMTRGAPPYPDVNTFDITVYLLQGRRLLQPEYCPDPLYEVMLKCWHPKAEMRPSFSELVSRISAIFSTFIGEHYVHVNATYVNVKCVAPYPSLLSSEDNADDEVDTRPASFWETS

Regarding `Cc1cc(O)c(C=O)c2c1C(=O)Oc1c(C)c(O)c3c(c1O2)C(O)OC3=O` (centres unmarked) [norstictic acid], on c-Met [1], the IC50 turned out to be 6.5 µM.
With `C/C=C(/C=O)[C@@H](CC=O)CC(=O)OCCc1ccc(O)cc1` [oleocanthal], at c-Met [2], the “Z'-LYTE Tyr6 peptide kinase assay, single concentration (53% reduction at 5 μM),” value is 53% reduction at 5.
